These are literature values, as cited in US20090270335A1, “COLLYRIUM FOR DRY EYE” (AQUEOUS PHARMA LIMITED, priority 2006, published 2009).

Molecules are shown by their SMILES.

This data set concerns tear secretion. To be noted: topical application.
Setting [1] is: both in dry eye patients and people not suffering from dry eye.

Consider `CC[C@H](C)[C@H](NC(=O)[C@H](Cc1ccccc1)NC(=O)[C@H](C)NC(=O)[C@H](CC(=O)O)NC(=O)[C@H](CCCCN)NC(=O)[C@H](CO)NC(=O)[C@@H]1CCCN1C(=O)[C@@H]1CCC(=O)N1)C(=O)NCC(=O)N[C@@H](CC(C)C)C(=O)N[C@@H](CCSC)C(N)=O` [eledoisin, Glu-Pro-Ser-Lys-Asp-Ala-Phe-Ile-Gly-Leu-Met-NH2], for which, under setting [1], the tear secretion rate entry is “increase” and the tear volume result is recorded as “increase”. Also, under “patients”, the “side effect: chemosis” value is recorded as “not pronounced” and the “side effect: hyperemia of the conjunctiva” value is listed as “observed initially in some patients”.
